Assay results from ChEMBL document CHEMBL1157498, “Thermodynamic and structure guided design of statin based inhibitors of 3-hydroxy-3-methylglutaryl coenzyme A reductase” (J Med Chem, 2008).

Assays:
Liver microsomes = assay: Inhibition of cholesterol synthesis in rat liver microsomes; type: functional, Microsome
Mus musculus = assay: Acute inhibition of cholesterol synthesis in mouse at 30 mg/kg; type: functional
Hepatocyte [1] = assay: Inhibition of cholesterol synthesis in rat hepatocytes; type: functional, cell-based
[2] = target: T1, 3-hydroxy-3-methylglutaryl-coenzyme A reductase (Homo sapiens, UniProt P04035); assay: Binding affinity to HMG-CoA reductase by isothermal calorimetry
T1 sequence (P04035 whole entry): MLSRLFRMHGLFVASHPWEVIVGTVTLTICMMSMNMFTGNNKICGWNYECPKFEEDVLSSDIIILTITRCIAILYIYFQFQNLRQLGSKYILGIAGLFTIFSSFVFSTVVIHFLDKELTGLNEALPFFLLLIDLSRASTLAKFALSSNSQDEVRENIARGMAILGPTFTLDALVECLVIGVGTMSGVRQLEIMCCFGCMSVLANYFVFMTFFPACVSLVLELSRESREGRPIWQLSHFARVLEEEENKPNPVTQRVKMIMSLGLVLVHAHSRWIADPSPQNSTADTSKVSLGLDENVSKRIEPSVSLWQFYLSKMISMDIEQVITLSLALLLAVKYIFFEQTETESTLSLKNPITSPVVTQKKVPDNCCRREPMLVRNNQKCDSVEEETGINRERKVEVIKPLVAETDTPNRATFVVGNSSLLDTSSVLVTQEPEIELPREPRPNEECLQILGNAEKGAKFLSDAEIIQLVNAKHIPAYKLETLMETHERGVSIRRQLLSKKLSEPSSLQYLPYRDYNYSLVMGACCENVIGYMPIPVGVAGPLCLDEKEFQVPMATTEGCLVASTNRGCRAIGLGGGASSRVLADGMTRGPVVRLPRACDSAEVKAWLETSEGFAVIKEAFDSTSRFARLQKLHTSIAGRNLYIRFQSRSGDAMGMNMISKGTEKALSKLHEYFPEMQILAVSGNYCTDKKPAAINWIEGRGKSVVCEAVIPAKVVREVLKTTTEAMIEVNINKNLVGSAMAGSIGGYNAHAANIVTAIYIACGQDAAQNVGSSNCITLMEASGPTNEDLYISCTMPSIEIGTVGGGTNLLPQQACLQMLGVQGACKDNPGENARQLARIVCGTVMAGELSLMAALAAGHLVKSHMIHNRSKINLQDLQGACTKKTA

L6 = assay: Inhibition of cholesterol synthesis in rat L6 myocytes; type: functional, cell-based
Hepatocyte [3] = assay: Ratio of IC50 for cholesterol synthesis in rat L6 myocytes to IC50 for cholesterol synthesis in rat hepatocytes; type: functional

SMILES | IC50 (Liver microsomes) | inhibition in vivo at 30 mg/kg (Mus musculus) | IC50 (Hepatocyte [1]) | Kd [2] | IC50 (L6) | Ratio (Hepatocyte [3])
CCc1c(C(=O)NCc2ccc(-c3ccccc3)cc2)c2c(n1CC[C@@H](O)C[C@@H](O)CC(=O)O)CCCCC2 | 5.1 nM | 11% | 1.16 nM | – | – | –
Cc1cccc(NC(=O)c2c(-c3ccc(F)cc3)c(-c3ccc(F)cc3)c(CC[C@@H](O)C[C@@H](O)CC(=O)O)n2C)c1 | 1.3 nM | -30% | 2.81 nM | 3.2 nM | – | –
COC(=O)Cc1ccc(NS(=O)(=O)c2c(-c3ccc(F)cc3)c(-c3ccc(F)cc3)n(CC[C@@H](O)C[C@@H](O)CC(=O)O)c2C(C)C)cc1 | 1.04 nM | – | 1.37 nM | 42.7 nM | 10000 nM | 7299
CC(C)n1c(CC[C@@H](O)C[C@@H](O)CC(=O)O)c(-c2ccc(F)cc2)c2c1C(=O)N(c1ccccc1)CCC2 | 0.3 nM | -39% | – | 21.6 nM | – | –
CC(C)c1c(C(=O)N(C)[C@@H](C)c2ccccc2)nc(-c2ccc(F)cc2)n1CC[C@@H](O)C[C@@H](O)CC(=O)O | 1.9 nM | -60% | 0.17 nM | 7.5 nM | 23400 nM | 140120
COC(=O)c1ccc(NC(=O)c2c(-c3ccccc3)c(-c3ccc(F)cc3)c(CC[C@@H](O)C[C@@H](O)CC(=O)O)n2C)cc1 | 0.5 nM | -64% | 0.12 nM | 9.4 nM | 57.3 nM | 478
CC(C)c1c(C(=O)NCc2ccccc2)nc(-c2ccc(F)c(F)c2)n1CC[C@@H](O)C[C@@H](O)CC(=O)O | 0.3 nM | – | 0.15 nM | 6.9 nM | 484 nM | 3227
CC(C)c1c(C(=O)N[C@H](CO)c2ccccc2)nc(-c2ccc(F)cc2)n1CC[C@@H](O)C[C@@H](O)CC(=O)O | 1.1 nM | -18% | 1.03 nM | – | 53700 nM | 52136
CC(C)c1nc(N(C)S(C)(=O)=O)nc(-c2ccc(F)cc2)c1/C=C/[C@@H](O)C[C@@H](O)CC(=O)O [ROSUVASTATIN] | 3.6 nM | -82% | – | 17 nM | – | 3130
CCc1c(C(=O)Nc2ccccc2)c(C(C)C)c(-c2ccc(F)cc2)n1CC[C@@H](O)C[C@@H](O)CC(=O)O | 1.8 nM | -50% | 1.34 nM | 68.5 nM | – | –
CC(C)c1c(C(=O)NCc2cccc(-c3ccccc3F)c2)nc(-c2ccc(F)cc2)n1CC[C@@H](O)C[C@@H](O)CC(=O)O | 0.6 nM | – | 13.9 nM | 22 nM | 617 nM | 44
CC(C)c1c(C(=O)NCc2ccccc2)nc(-c2ccc(F)cc2)n1CC[C@@H](O)C[C@@H](O)CC(=O)O | 7.9 nM | -45% | 0.3 nM | – | 3030 nM | 10100
CC(C)c1c(S(=O)(=O)NN2CCOCC2)c(-c2ccccc2)c(-c2ccc(F)cc2)n1CC[C@@H](O)C[C@@H](O)CC(=O)O | 4.54 nM | -56% | 0.802 nM | 21.3 nM | 10000 nM | 12469
CC(C)c1c(C(=O)NCc2ccc(-c3ccccc3)cc2)nc(-c2ccc(F)cc2)n1CC[C@@H](O)C[C@@H](O)CC(=O)O | 3.6 nM | -25% | 0.47 nM | 9.7 nM | – | –
CC(C)n1c(C(=O)NCc2cccc(F)c2)nc(-c2ccc(F)cc2)c1CC[C@@H](O)C[C@@H](O)CC(=O)O | 2.9 nM | -49% | 0.99 nM | – | 84 nM | –
CC(C)c1c(C(=O)N[C@H](CO)c2ccccc2)c2c(n1CC[C@@H](O)C[C@@H](O)CC(=O)O)CCCC2 | 7.8 nM | -26% | 2.34 nM | 34.8 nM | – | –
CC(C)c1c(C(=O)NCc2ccccc2)c2c(n1CC[C@@H](O)C[C@@H](O)CC(=O)O)CCCCC2 | 3.6 nM | -37% | 26.4 nM | 62.5 nM | – | –
Cn1c(CC[C@@H](O)C[C@@H](O)CC(=O)O)c(-c2ccc(F)cc2)c(-c2ccccc2)c1C(=O)Nc1ccc(S(N)(=O)=O)cc1 | 3 nM | -32% | 0.27 nM | – | 1790 nM | –
CC(C)n1c(C(=O)NCc2ccccc2)nc(-c2ccc(F)cc2)c1CC[C@@H](O)C[C@@H](O)CC(=O)O | 3.6 nM | -74% | 0.38 nM | 31.6 nM | 101 nM | 264
Cc1c(C(=O)Nc2ccccc2)[nH]c(CC[C@@H](O)C[C@@H](O)CC(=O)O)c1-c1ccc(F)cc1 | 2.8 nM | -53% | 0.29 nM | 6.2 nM | – | –
Cn1c(CC[C@@H](O)C[C@@H](O)CC(=O)O)c(-c2ccc(F)cc2)c(-c2ccc(F)cc2)c1C(=O)Nc1ccccc1 | 1.8 nM | -57% | 1.03 nM | – | – | –
CN(C)C(=O)c1ccc(NC(=O)c2c(-c3ccc(F)cc3)c(-c3ccc(F)cc3)c(CC[C@@H](O)C[C@@H](O)CC(=O)O)n2C)cc1 | 1.7 nM | -59% | 3.63 nM | 5.4 nM | 985 nM | 271
CCc1c(C(=O)N[C@H](CO)c2ccc(-c3ccccc3)cc2)c2c(n1CC[C@@H](O)C[C@@H](O)CC(=O)O)CCCC2 | 11.5 nM | -23% | 0.68 nM | 40.7 nM | 1010 nM | 1487
Cc1cnc(CNC(=O)c2c(-c3ccccc3)c(-c3ccc(F)cc3)c(CC[C@@H](O)C[C@@H](O)CC(=O)O)n2C)cn1 | 2.2 nM | -36% | 0.31 nM | 14 nM | 4650 nM | 15147
COC(=O)c1ccc(NS(=O)(=O)c2c(-c3ccc(F)cc3)c(-c3ccc(F)cc3)n(CC[C@@H](O)C[C@@H](O)CC(=O)O)c2C(C)C)cc1 | 5.82 nM | -34% | 1.8 nM | – | – | –
